US20140296154A1, “METHOD OF PREVENTING DEVELOPMENT OF PSORIATIC LESIONS” (YALE UNIVERSITY, priority 2011, published 2014)
Square brackets hold non-standard residues; d marks the D form. Ends that are not written are not given here.

What was measured:
[1] = Topical delivery of FITC-labeled NBD peptide into skin; assay type: in vivo
Text: To assess the ability to deliver the NBD peptide of SEQ ID NO: 122 topically, the peptide was conjugated to the fluorophore FITC, and the labeled peptide prepared in two different formulations. The first formulation consisted of the labeled peptide dissolved in vaseline ointment, and the second formulation consisted of the labeled peptide dissolved in DMSO.

[2] = system: PSX mice (K14-VEGF transgenic psoriasis model); test: Ear thickness / psoriatic lesion development in PSX (homozygous K14-VEGF transgenic) mice; assay type: in vivo, mouse; conditions: intraperitoneal 50 micrograms twice weekly; for mean ear thickness / psoriatic skin lesions: older PSX mice with fully developed psoriatic lesions, 8 weeks, vs untreated control
Text: This K14-VEGF mouse was backcrossed to homozygosity for the transgene(s), generating a mouse model that develops psoriasiform lesions on the ears spontaneously and after trauma. These are referred to as PSX mice. […] FIGS. 3A-D illustrate the PSX transgenic mouse model used in screening psoriasis treatments in accordance with the present invention. […] FIGS. 3C and 3D show pathology of the mouse model.
The NF-κB inhibitor used for the treatments in this example was the fusion protein drqikiwfqnrrmkwkkTALDWSWLQTE (SEQ ID NO: 122), where lower case letters indicate D-amino acid residues and upper case letters indicate L-amino acid residues. This inhibitor includes a translocation domain of Antennapedia and an Nemo Binding Domain (NBD) peptide.
The peptide was formulated and administered as an intraperitoneal injection of 50 micrograms to either PSX mice after they had fully developed psoriatic skin lesions (FIG. 7) or prior to the development of psoriatic plaques when the ears were still uninvolved (FIG. 8). Assessment of the development of psoriatic lesions was measured by the thickness of ear tissue.

A20 = test: Western blot of A20 in skin of WT and PSX mice with and without TPA; assay type: in vivo, mouse; conditions: topical TPA; wild-type and old (24-week) PSX mice compared to young (4-week) PSX mice

FITC-conjugated NBD peptide of SEQ ID NO: 122: NBD peptide of SEQ ID NO: 122 conjugated to the fluorophore FITC, in vaseline ointment or DMSO ([dD][dR][dQ][dI][dK][dI][dW][dF][dQ][dN][dR][dR][dM][dK][dW][dK][dK]TALDWSWLQTE; also: FITC conjugate, site not given here)
peptide localisation in skin after topical administration ([1]; peptide in DMSO): uptake is prevalent among the cells in both the epidermis and dermis
peptide localisation in skin after topical administration ([1]; peptide in vaseline ointment): limited to the stratum corneum

drqikiwfqnrrmkwkkTALDWSWLQTE ([dD][dR][dQ][dI][dK][dI][dW][dF][dQ][dN][dR][dR][dM][dK][dW][dK][dK]TALDWSWLQTE) [SEQ ID NO: 122]
mean ear thickness / psoriatic skin lesions ([2]; listed as NF-κB inhibitor): no change
mean ear thickness / psoriatic skin lesions ([2]; listed as peptide): no effect
thickening of the ear and development of phenotypic lesions of psoriasis ([2]; young PSX mice treated prior to development of psoriatic plaques, vs vehicle (DMSO)): prevented the thickening of the ear

CCCCCCCCCCCCCC(=O)O[C@@H]1[C@@H](C)[C@@]2(O)[C@@H](C=C(CO)C[C@]3(O)C(=O)C(C)=C[C@@H]23)[C@@H]2C(C)(C)[C@]12OC(C)=O [TPA, 12-O-tetradecanoyl phorbol-13-acetate]
A20 protein induction (A20): robust induction
